Paper PMC10208956, “Microbial peptides activate tumour-infiltrating lymphocytes in glioblastoma” (Nature, 2023)
Where two headings read alike, the source gives them in different places.

How the values were obtained:
[1] = tested on: isolated TIL-derived CD4+ TCCs; test: All isolated TCCs tested against SIN3A* peptide: proliferation (SI); type: cell-based, human; details: for SI: proliferation, sheet 2b
TCC88 = details: for Proliferation (SI), peptide dose titration: sheet f
[2] = tested on: autologous glioblastoma cells; test: T cell cytotoxicity assay of TCC88 against the autologous tumour cell line; type: cell-based, human; details: TCC88 stimulated with 2 µM peptide for 72 h; E:T 1:1 and 5:1; 24 h; duplicates; Fig. 3f
Description: Fig. 3 Bacteria-derived and microbiota-derived peptides can stimulate TCC88 as well as the tumour antigen. a, Peptides with the highest predicted stimulatory scores were identified by searching various databases (see Methods). Numbers of unique 10-mer peptides within each database, synthesized peptides, TCC88 stimulatory peptides and the corresponding percentage of stimulatory peptides within each database are shown. […] Cytokine and chemokine secretion of TCC88 was examined and compared upon stimulation with these three different antigens. A specific amount of each cytokine and chemokine (pg ml^−1) was calculated by subtracting the cytokines in the negative control cultures (no peptide control). f, Cytotoxicity of TCC88 against the autologous tumour cell line after stimulation with 2 µM of SIN3A* and HGM3 (data represent the mean percentage of two replicate wells). E:T, effector to target. g, TCC88 was tested with HGM3 (10 µM) or SIN3A* (10 µM) peptides or both together (each 10 µM), and ^3H-thymidine incorporation was measured after 3 days (data represent the mean SI value of three replicate wells ± s.e.m.). Also see Extended Data Figs. 3 and 4. Source data […]

[3] = tested on: sorted CD4+ PE and FITC TCRVβ+ TILs; test: Proliferation of TCRBV-sorted CD4+ TILs (without TCRBV6.1 and TCRBV6.2); type: cell-based, human; details: sheet 6b

Work on Ac-QPVEFNHAIHYVN-NH2 [SIN3A*] yielded an SI ([1]; TCC4) of 326.128, an SI ([1]; TCC11) of 238.815 and an SI ([1]; TCC12) of 287.573. For the same substance, the SI ([1]; TCC13) was 453.401, the SI ([1]; TCC15) was 28.5845 and the SI ([1]; TCC16) was 23.5776. The SI ([1]; TCC20) was 244.524, the SI ([1]; TCC29) was 34.8583 and the SI ([1]; TCC31) was 128.595. The SI ([1]; TCC32) was 5.805, the SI ([1]; TCC33) was 313.375 and the SI ([1]; TCC35) was 7.243. For the same substance, the SI ([1]; TCC37) was 2.779, the SI ([1]; TCC38) was 611.635 and the SI ([1]; TCC43) was 28.9619. The SI ([1]; TCC47) was 29.6013, the SI ([1]; TCC52) was 25.0598 and the SI ([1]; TCC56) was 22.816. The SI ([1]; TCC57) was 3.669, the SI ([1]; TCC60) was 23.5877 and the SI ([1]; TCC63) was 17.3519. For the same substance, the SI ([1]; TCC67) was 7.121, the SI ([1]; TCC68) was 7.155 and the SI ([1]; TCC72) was 5.137. The SI ([1]; TCC75) was 11.5536, the SI ([1]; TCC76) was 2.574 and the SI ([1]; TCC88) was 34.5634. It also gave an SI ([1]; TCC89) of 2.064, an SI ([1]; TCC90) of 56.5299 and an SI ([1]; TCC91) of 28.9154. The SI ([1]; TCC92) was 23.8373, the SI ([1]; TCC93) was 31.4988 and the SI ([1]; TCC94) was 41.408. The SI ([1]; TCC96) was 17.6927, the SI ([1]; TCC97) was 56.4388 and the SI ([1]; TCC98) was 67.9438. It also gave an SI ([1]; TCC99) of 7.081, an SI ([1]; TCC101) of 5.504 and an SI ([1]; TCC102) of 3.298. The SI ([1]; TCC103) was 23.6756, the SI ([1]; TCC104) was 20.3791 and the SI ([1]; TCC107) was 14.7872. For the same substance, the SI ([1]; TCC109) was 67.7177, the SI ([1]; TCC110) was 38.4196 and the SI ([1]; TCC111) was 16.0477. It also gave an SI ([1]; TCC112) of 3.861, an SI ([1]; TCC113) of 9.948 and an SI ([1]; TCC114) of 19.6549. For the same substance, the SI ([1]; TCC115) was 9.682, the SI ([1]; TCC116) was 36.7042 and the SI ([1]; TCC118) was 2.382. It also gave an SI ([1]; TCC120) of 8.436, an SI ([1]; TCC121) of 46.4714 and an SI ([1]; TCC124) of 44.5013. It also gave an SI ([1]; TCC126) of 30.498, an SI ([1]; TCC127) of 40.4213 and an SI ([1]; TCC128) of 20.9837. The SI ([1]; TCC129) was 2.6751, the SI ([1]; TCC130) was 24.2362 and the SI ([1]; TCC132) was 2.2794. For the same substance, the SI ([1]; TCC133) was 8.094, the SI ([1]; TCC134) was 2.175 and the SI ([1]; TCC135) was 13.0838. The SI ([1]; TCC137) was 37.685, the SI ([1]; TCC138) was 0.96 and the “CD4+ TCCs that responded by proliferation or production of IFNγ” value ([1]; TCCs isolated from SIN3A*-stimulated TILs, 3 days, Fig. 2b) was 70 out of 124. The “SI: TCC88” value (TCC88; 3 h) was 20.6, the “Proliferation (SI), peptide dose titration” value (TCC88; peptide concentration 10-1 (unit not given), replicate 1) was 42.2997 and the “Proliferation (SI), peptide dose titration” value (TCC88; peptide concentration 10-1 (unit not given), replicate 2) was 45.1904. The “Proliferation (SI), peptide dose titration” value (TCC88; peptide concentration 10-1 (unit not given), replicate 3) was 49.4521, the “Proliferation (SI), peptide dose titration” value (TCC88; peptide concentration 10-2 (unit not given), replicate 1) was 1.135 and the “Proliferation (SI), peptide dose titration” value (TCC88; peptide concentration 10-2 (unit not given), replicate 2) was 0.9523. For the same substance, the “Proliferation (SI), peptide dose titration” value (TCC88; peptide concentration 10-2 (unit not given), replicate 3) was 1.168, the “Proliferation (SI), peptide dose titration” value (TCC88; peptide concentration 10-3 (unit not given), replicate 1) was 0.8172 and the “Proliferation (SI), peptide dose titration” value (TCC88; peptide concentration 10-3 (unit not given), replicate 2) was 0.7497. The “Proliferation (SI), peptide dose titration” value (TCC88; peptide concentration 10-3 (unit not given), replicate 3) was 0.8105, the “Proliferation (SI), peptide dose titration” value (TCC88; peptide concentration printed 10, fifth line r7 (unit not printed), replicate 1) was 28.2921 and the “Proliferation (SI), peptide dose titration” value (TCC88; peptide concentration printed 10, fifth line r7 (unit not printed), replicate 2) was 32.0878. For the same substance, the “Proliferation (SI), peptide dose titration” value (TCC88; peptide concentration printed 10, fifth line r7 (unit not printed), replicate 3) was 32.0203, the “Proliferation (SI), peptide dose titration” value (TCC88; peptide concentration printed 10, fourth line r6 (unit not printed), replicate 1) was 44.2381 and the “Proliferation (SI), peptide dose titration” value (TCC88; peptide concentration printed 10, fourth line r6 (unit not printed), replicate 2) was 56.0371. The “Proliferation (SI), peptide dose titration” value (TCC88; peptide concentration printed 10, fourth line r6 (unit not printed), replicate 3) was 57.6243, the “cytotoxic activity against autologous glioblastoma cells (in words)” value [2] was “comparable” and the “Proliferation (SI) of sorted CD4+ TILs” value ([3]; replicate 1) was 9.2018. For the same substance, the “Proliferation (SI) of sorted CD4+ TILs” value ([3]; replicate 2) was 10.7366 and the “Proliferation (SI) of sorted CD4+ TILs” value ([3]; replicate 3) was 6.162.
